Measurements from patent US9258995B2, “Organ cold storage composition and methods of use” (BOARD OF TRUSTEES OF THE UNIVERSITY OF ARKANSAS, priority 2009, dated 2016).

What was measured:
NRK cells [1] = conditions: 24 h CS of NRK cells; cited from earlier work
NRK cells [2] = test: MitoSOX Red mitochondrial superoxide generation, cold storage in vitro model; format: cell-based, rat; conditions: 4 h CS at 4° C. in UW, 1 μM
Method: Normal rat kidney proximal tubular cells (NRK-52E; American Type Culture Collection, Manassas, Va.) were maintained in six-well 100 or 150-mm, or 150-mm plates in a humidified incubator gassed with 5% CO2 and 95% air at 37° C. in DMEM (Invitrogen, Carlsbad, Calif.) containing 5% fetal calf serum (FCS). Cells were grown to 60% confluence and divided into four treatment groups: 1) untreated (Untx), 2) CS, 3) CS+MitoQ, and 4) CS+DecylTPP. Untreated cells remained at 37° C. in DMEM containing 5% FCS (group 1). […]
MitoSOX Red (Invitrogen) was used to measure mitochondrial superoxide generation during CS. […] Fluorescence was visualized using an Eclipse E800 microscope (Nikon, Melville, N.Y.) with a rhodamine filter using a water immersion objective (60×). Fluorescent images of NRK cells were captured with equal exposure times and quantified by averaging the mean intensity fluorescence of five random cells in three different fields using Nikon N is Elements software. In separate experiments, cells were grown on coverslips, preloaded with MitoSOX Red before treatment (groups 1-4), and evaluated for mitochondrial superoxide generation using a Hitachi F-2500 spectrofluorometer (Hitachi, Tokyo, Japan) equipped with a coverslip holder using two different excitation wavelengths: 396 and 510 nm with the emission measured at 580 nm as previously described. […]

rat kidneys [3] = test: MitoSOX Red mitochondrial superoxide generation, cold storage ex vivo model; conditions: rat kidneys, 4 h CS at 4° C., 100 μM
Method: (§1) All animals were treated according to the National Institutes of Health Guide for the Care and Use of Laboratory Animals and the University of Arkansas for Medical Sciences Institutional Animal Care and Use Committee guidelines. Male Fischer 344 inbred rats (Charles Rivers Laboratories, Inc., Wilmington, Mass.) weighing between 250 and 300 g were anesthetized with ethrane, followed by shaving and prepping with betadine. […] Bulldog clamps were placed on the aorta and vena cava (proximal and distal to the renal vessels) to prevent blood flow to the kidneys. A 22-gauge surgical needle was used to puncture the rat's aorta to flush the renal grafts with saline (10 ml per kidney) using a small catheter. Once the kidneys started to turn light brown (perfusion), another vent was formed in the vena cava to allow blood flow from the kidneys. Once both kidneys were completely flushed, the right kidney was recovered and served as a control (group 1), and the left kidney was exposed to CS alone for 4 h at 4° C. (group 2). In additional experiments, kidneys were flushed with saline through the aorta using a small catheter followed by flushing the right kidney with saline containing MitoQ (100 μM) and the left kidney with saline containing DecylTPP (100 μM) (10 ml per kidney). Tissues were recovered and stored in CS+MitoQ (100 μM; right kidney) or CS+DecylTPP (100 μM; left kidney) for 4 h at 4° C. (groups 3 and 4, respectively). […]
MitoSOX Red (Invitrogen) was used to measure mitochondrial superoxide generation during CS. […] Fluorescence was visualized using an Eclipse E800 microscope (Nikon, Melville, N.Y.) with a rhodamine filter using a water immersion objective (60×). Fluorescent images of NRK cells were captured with equal exposure times and quantified by averaging the mean intensity fluorescence of five random cells in three different fields using Nikon N is Elements software. In separate experiments, cells were grown on coverslips, preloaded with MitoSOX Red before treatment (groups 1-4), and evaluated for mitochondrial superoxide generation using a Hitachi F-2500 spectrofluorometer (Hitachi, Tokyo, Japan) equipped with a coverslip holder using two different excitation wavelengths: 396 and 510 nm with the emission measured at 580 nm as previously described. In addition, rat kidneys were monitored for mitochondrial superoxide generation by flushing kidneys with saline through the aorta using a small catheter as described under Cold Storage Ex Vivo Model, followed by saline containing MitoSOX Red (5 μM; 10 ml/kidney) before treatment (groups 1-4). Paraffin sections were analyzed using the rhodamine filter on the Nikon Eclipse 800 microscope (20×).

NRK cells [4] = test: Nitrotyrosine immunocytochemistry during CS; format: cell-based, rat; conditions: 4 h CS, 1 μM
Method: (§2) Normal rat kidney proximal tubular cells (NRK-52E; American Type Culture Collection, Manassas, Va.) were maintained in six-well 100 or 150-mm, or 150-mm plates in a humidified incubator gassed with 5% CO2 and 95% air at 37° C. in DMEM (Invitrogen, Carlsbad, Calif.) containing 5% fetal calf serum (FCS). Cells were grown to 60% confluence and divided into four treatment groups: 1) untreated (Untx), 2) CS, 3) CS+MitoQ, and 4) CS+DecylTPP. Untreated cells remained at 37° C. in DMEM containing 5% FCS (group 1). CS was initiated by washing cells with cold PBS (Invitrogen) twice and storing them in UW/Viaspan solution alone (4 h at 4° C.) (group 2), CS+MitoQ (1 μM) (group 3), or CS+DecylTPP (1 μM) (group 4). In separate experiments, cells were exposed to CS plus RW by replacing UW solution alone or UW solution containing MitoQ or DecylTPP with DMEM containing 5% FCS overnight (18 h at 37° C.).
(§3) NRK cells (groups 1-4) were assessed for nitrotyrosine formation as previously described. […] Nitrotyrosine staining was evaluated and captured with equal exposure times using a Nikon Eclipse 800 microscope (40×oil). Images were quantified by averaging the mean intensity fluorescence of five random cells in three different fields using Nikon N is Elements software. Renal tissue sections were assessed for the presence of nitrotyrosine protein adducts by nitrotyrosine immunohistochemistry. […]

[5] = system: mitochondrial respiratory complex II; test: Mitochondrial respiratory complex activity, NRK cell mitochondria after CS; format: cell-based, rat; conditions: NRK cells, 4-h CS, 1 μM
Method: as §2
(§4) NRK cell and rat kidney mitochondria were isolated by centrifugation on a sucrose density gradient. The activity of mitochondrial respiratory complexes I, II, III, or IV were assayed spectrophotometrically using 100 μg of mitochondrial protein at 30° C. as previously described.

[6] = system: mitochondrial respiratory complex I; test: as above; format: cell-based, rat; conditions: NRK cells, 4-h CS, 1 μM
Method: as §2, §4

[7] = system: mitochondrial respiratory complex II; test: Mitochondrial respiratory complex activity, rat kidney mitochondria after CS; conditions: rat kidneys, 4-h CS, 100 μM
Method: (§5) All animals were treated according to the National Institutes of Health Guide for the Care and Use of Laboratory Animals and the University of Arkansas for Medical Sciences Institutional Animal Care and Use Committee guidelines. Male Fischer 344 inbred rats (Charles Rivers Laboratories, Inc., Wilmington, Mass.) weighing between 250 and 300 g were anesthetized with ethrane, followed by shaving and prepping with betadine. […] Bulldog clamps were placed on the aorta and vena cava (proximal and distal to the renal vessels) to prevent blood flow to the kidneys. A 22-gauge surgical needle was used to puncture the rat's aorta to flush the renal grafts with saline (10 ml per kidney) using a small catheter. Once the kidneys started to turn light brown (perfusion), another vent was formed in the vena cava to allow blood flow from the kidneys. Once both kidneys were completely flushed, the right kidney was recovered and served as a control (group 1), and the left kidney was exposed to CS alone for 4 h at 4° C. (group 2). In additional experiments, kidneys were flushed with saline through the aorta using a small catheter followed by flushing the right kidney with saline containing MitoQ (100 μM) and the left kidney with saline containing DecylTPP (100 μM) (10 ml per kidney). Tissues were recovered and stored in CS+MitoQ (100 μM; right kidney) or CS+DecylTPP (100 μM; left kidney) for 4 h at 4° C. (groups 3 and 4, respectively). A thin middle section from all of the kidneys were cut and immediately fixed in 10% formalin before being embedded in paraffin for sectioning (4 μm) and histological evaluation. The remaining portion of the kidneys were quickly frozen in liquid nitrogen and stored in −80° C. until needed for biochemistry analyses.
as §4

[8] = system: mitochondrial respiratory complex I; test: as above; conditions: rat kidneys, 4-h CS, 100 μM
Method: as §5, §4

rat kidneys [9] = test: Periodic acid-Schiff morphological assessment of renal injury during CS; conditions: 4 h CS, 100 μM
Method: as §1, with “C.” for “C. (group 2). In additional experiments, kidneys were flushed with saline through the aorta using a small catheter followed by flushing the right kidney with saline containing MitoQ (100 μM) and the left kidney with saline containing DecylTPP (100 μM) (10 ml per kidney). Tissues were recovered and stored in CS+MitoQ (100 μM; right kidney) or CS+DecylTPP (100 μM; left kidney) for 4 h at 4° C. (groups 3 and 4, respectively).”
Renal sections were assessed for tissue injury using the periodic acid-Schiff reaction. […] Morphological evaluation of tubular dilation, brush border loss, and cellular debris/tubular cast formation were performed blindly with light microscopy and assessed semiquantitatively according to the following scoring system: 0, no changes; 1, mild changes; 2, moderate changes, and 3, severe changes.

rat kidneys [10] = test: TUNEL staining of renal cell death during CS; conditions: 4 h CS, 100 μM
Method: All animals were treated according to the National Institutes of Health Guide for the Care and Use of Laboratory Animals and the University of Arkansas for Medical Sciences Institutional Animal Care and Use Committee guidelines. Male Fischer 344 inbred rats (Charles Rivers Laboratories, Inc., Wilmington, Mass.) weighing between 250 and 300 g were anesthetized with ethrane, followed by shaving and prepping with betadine. […] Bulldog clamps were placed on the aorta and vena cava (proximal and distal to the renal vessels) to prevent blood flow to the kidneys. A 22-gauge surgical needle was used to puncture the rat's aorta to flush the renal grafts with saline (10 ml per kidney) using a small catheter. Once the kidneys started to turn light brown (perfusion), another vent was formed in the vena cava to allow blood flow from the kidneys. […]
Cell cytotoxicity was determined using the LDH-Cytotoxicity Assay Kit II (Biovision Research Products, Mountain View, Calif.) according to the manufacturer's instructions. Absorbance was measured at 450 nm using a SpectraMax 190 microplate reader and SpectraMax software (Molecular Devices, Sunnyvale, Calif.). Renal cell death was determined using TUNEL staining. […] The amount of cell death was calculated by averaging the number of cells positive for TUNEL (brown staining) in 10 different fields (cortex and medulla) (20×). […]

NRK cells [11] = test: Nitrotyrosine immunocytochemistry, CS plus rewarming; format: cell-based, rat; conditions: 4-h CS plus overnight (18 h) RW, 1 μM added during CS
Method: as §2, §3

NRK cells [12] = test: LDH cytotoxicity assay, CS and CS plus rewarming; format: cell-based; conditions: 1 μM
Method: as §2
Cell cytotoxicity was determined using the LDH-Cytotoxicity Assay Kit II (Biovision Research Products, Mountain View, Calif.) according to the manufacturer's instructions. Absorbance was measured at 450 nm using a SpectraMax 190 microplate reader and SpectraMax software (Molecular Devices, Sunnyvale, Calif.). Renal cell death was determined using TUNEL staining. Kidney sections were deparaffinized, rehydrated, and exposed to antigen retrieval (20-min incubation at 95° C. with 10 mM sodium citrate buffer, pH 6.0) followed by washing with distilled water and quenching of endogenous peroxidase. Sections were immersed in TdT labeling buffer and then incubated in a humidified chamber with the labeling reaction mix from the TAGS 2 TdT-DAB In Situ Apoptosis Detection kit (Trevigen, Inc., Gaithersburg, Md.) for 1 h at room temperature. The reaction was stopped with TdT stop buffer, and slides were subsequently washed with PBS. Sections were incubated for 10 min with streptavidin-HRP followed by development with diaminobenzidine solution, counterstaining with Mayer's hematoxylin, dehydration, and mounting with Cytoseal-60. The amount of cell death was calculated by averaging the number of cells positive for TUNEL (brown staining) in 10 different fields (cortex and medulla) (20×). All images were taken at equal exposure times (40×oil).

SMILES | nitrotyrosine staining (one marker of peroxynitrite) (NRK cells [1]) | CS-induced mitochondrial superoxide generation (MitoSOX Red) (NRK cells [2]) | mitochondrial superoxide generation (MitoSOX Red) (rat kidneys [3]) | effect on CS-mediated nitrotyrosine formation (NRK cells [4]) | complex II inactivation [5] | complex I inactivation [6] | complex II inactivation [7] | complex I inactivation [8] | renal histology / renal injury (periodic acid-Schiff staining) (rat kidneys [9]) | protection against cell death (TUNEL) (rat kidneys [10]) | nitrotyrosine staining during CS.RW (NRK cells [11]) | effect on cell death (LDH cytotoxicity) (NRK cells [12]; CS alone) | effect on cell death (LDH cytotoxicity) (NRK cells [12]; CS.RW)
CNC(=N)NCCC[C@H](N)C(=O)O.O=C(O)CC(O)(CC(=O)O)C(=O)O [N^5-[imino(methylamino)methyl]-L-ornithine citrate] | inhibited |  |  |  |  |  |  |  |  |  |  |  | 
CCCCCCCCCC[P+](c1ccccc1)(c1ccccc1)c1ccccc1.[Br-] [DecylTPP, decyltriphenylphosphonium bromide, reference compound] |  | did not offer any protection | comparable levels of mitochondrial superoxide to kidneys exposed to CS alone | did not decrease | no significant effect | no significant effect | did not have any effect | did not have any effect | did not reverse renal injury | no protective benefits | no effect | did not reduce | did not reduce
